Experimental data: the supplement of paper PMC11208160

Assay: recombinant barcode read abundance after kanamycin selection (control-corrected) (log10(CPM+1)); higher = more efficient recombination; sequences stand for … in AGTGCAGAGAAAATCGGCCAGTTTTCTCTGCCTGCAGTCCGCATGCCGT…AGATTTATGCAGCGGACTGCCTTTCTCCCAAAGTGATAAACCGGACAGTATCATGGACCGGTTTTCCCGGTAATCCGTATTTGCAAGGTTGGTTTCACT; site = the 11-nt target
Outline: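 Recombination efficiency was calculated from barcode counts at recombinant junctions, normalized to counts per million, averaged and corrected by the control. Each value is given as log10(CPM+1). The constructs were Gibson-cloned oligos (promoter, target, barcode, J23119-driven first 104 bridge RNA bases) in a vector with the remaining 73 bp and a T7-inducible recombinase, co-electroporated into E. coli with a donor plasmid and plated in duplicate on chloramphenicol/ampicillin LB agar (control) or chloramphenicol/ampicillin/kanamycin with 0.1 mM IPTG.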
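Further: IS621 recombinase and bridge RNA in Escherichia coli cells.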

Sequence	recombinant barcode read abundance (log10)
CACTTCCCTTGGGTTCTAACCTGTTGCCT (site CACTTCCCTAC)	0.0709
CACTTCCCTTGGGTTCTAACCTGTTGCCT (site CACTTCCCTAG)	0.924
CACTTCCCTTGGGTTCTAACCTGTTGCCT (site CACTTCCCTAT)	0.0298
CACTTCCCTTGGGTTCTAACCTGTTGCTT (site CACTTCCCTAA)	1.04
CACTTCCCTTGGGTTCTAACCTGTTGCTT (site CACTTCCCTAC)	0.0814
CACTTCCCTTGGGTTCTAACCTGTTGCTT (site CACTTCCCTAG)	0.442
CACTTCCCTTGGGTTCTAACCTGTTGCTT (site CACTTCCCTAT)	0.443
CACTTGTCTTGGGTTCTAACCTGTTGCCA (site CACTTGTCTTG)	0.0547
CACTTGTCTTGGGTTCTAACCTGTTGCCA (site TATTTGTCTTG)	0.0129
CAGAAGTCTTGGGTTCTAACCTGTTGCTT (site ACACGTGCTTC)	0.0609
CAGAAGTCTTGGGTTCTAACCTGTTGCTT (site CAGAAGTCTAA)	1.44
CAGAATACTTGGGTTCTAACCTGTTGCGT (site CAAAATTCTAC)	0.215
CAGAATACTTGGGTTCTAACCTGTTGCGT (site CAGAATACTAC)	2.24
CAGAGAGCTTGGGTTCTAACCTGTTGCCT (site CAGAGAGCTAG)	1.2
CAGAGAGCTTGGGTTCTAACCTGTTGCCT (site CCGAGAGCTAG)	0.0663
CAGAGAGCTTGGGTTCTAACCTGTTGCCT (site CGGAGAGCTAG)	0.0978
CAGAGAGCTTGGGTTCTAACCTGTTGCCT (site CTGAGAGCTAG)	0.132
CAGAGCTCTTGGGTTCTAACCTGTTGCCT (site CAGAGCTCTAG)	1.43
CAGAGCTCTTGGGTTCTAACCTGTTGCCT (site CAGAGGTCTAG)	0.309
CAGAGTCCTTGGGTTCTAACCTGTTGCCT (site CAGAGTCCTAG)	1.26
CAGAGTCCTTGGGTTCTAACCTGTTGCCT (site CAGAGTCCTAT)	0.3
CAGATCCCTTGGGTTCTAACCTGTTGCCT (site CAGATCCCTAG)	1.91

Sequence	recombinant barcode read abundance (log10)
CAGATCCCTTGGGTTCTAACCTGTTGCCT (site CCGATCCCTAG)	0.0889
CAGATCCCTTGGGTTCTAACCTGTTGCCT (site CGGATCCCTAG)	0.0247
CAGATCCCTTGGGTTCTAACCTGTTGCCT (site CTGATCCCTAG)	0.0156
CAGATGACTTGGGTTCTAACCTGTTGCCT (site CAAATTACTAG)	0.393
CAGATGACTTGGGTTCTAACCTGTTGCCT (site CAGATGACTAG)	1.52
CAGCCGTCTTGGGTTCTAACCTGTTGCGG (site CAATCGTCTCC)	0.0473
CAGCCGTCTTGGGTTCTAACCTGTTGCGG (site CAGCCGTCTCC)	1.09
CAGCGAGCTTGGGTTCTAACCTGTTGCCG (site CAACGAGCTCG)	0.21
CAGCGAGCTTGGGTTCTAACCTGTTGCCG (site CACCGAGCTCG)	0.117
CAGCGAGCTTGGGTTCTAACCTGTTGCCG (site CAGCGAGCTCG)	0.737
CAGCGAGCTTGGGTTCTAACCTGTTGCCG (site CATCGAGCTCG)	0.0483
CAGGAGACTTGGGTTCTAACCTGTTGCCT (site CAGGAGACTAG)	1.63
CAGGAGACTTGGGTTCTAACCTGTTGCCT (site TAGGAGACTGG)	0.0578
CAGGCGACTTGGGTTCTAACCTGTTGCCT (site CAGGCGACTAG)	0.0758
CAGGCGACTTGGGTTCTAACCTGTTGCCT (site CAGGCGCCTAG)	0.556
CAGGCGACTTGGGTTCTAACCTGTTGCCT (site CAGGCGGCTAG)	0
CAGGCGACTTGGGTTCTAACCTGTTGCCT (site CAGGCGTCTAG)	0.394
CAGGGGACTTGGGTTCTAACCTGTTGCAC (site CAGGGGACTGT)	2.38
CAGGGGACTTGGGTTCTAACCTGTTGCAC (site TCCAACCCTAA)	0.0666
CAGGGTTCTTGGGTTCTAACCTGTTGCCT (site CAGGGTTCTAG)	2.18
CAGGGTTCTTGGGTTCTAACCTGTTGCCT (site CCGGGTTCTAG)	0.0396
CAGGGTTCTTGGGTTCTAACCTGTTGCCT (site CGGGGTTCTAG)	0.12

Sequence	recombinant barcode read abundance (log10)
CAGGGTTCTTGGGTTCTAACCTGTTGCCT (site CTGGGTTCTAG)	0.21
CAGGTACCTTGGGTTCTAACCTGTTGCAT (site CAGGTACCTAT)	3.14
CAGGTACCTTGGGTTCTAACCTGTTGCAT (site CAGGTACCTCT)	0.864
CAGGTCCCTTGGGTTCTAACCTGTTGCCG (site ATACGTTCTAT)	0.102
CAGGTCCCTTGGGTTCTAACCTGTTGCCG (site CAGGTCCCTCG)	2.74
CAGGTGACTTGGGTTCTAACCTGTTGCGG (site CAGGTGACTCC)	1.33
CAGGTGACTTGGGTTCTAACCTGTTGCGG (site GGATATCCTAA)	0.0229
CAGTACGCTTGGGTTCTAACCTGTTGCCT (site CAGCAAGCTAG)	0.31
CAGTACGCTTGGGTTCTAACCTGTTGCCT (site CAGTACGCTAG)	0.652
CAGTATCCTTGGGTTCTAACCTGTTGCCT (site CAATATCCTAG)	0.867
CAGTATCCTTGGGTTCTAACCTGTTGCCT (site CACTATCCTAG)	0.0764
CAGTATCCTTGGGTTCTAACCTGTTGCCT (site CAGTATCCTAG)	0.945
CAGTATCCTTGGGTTCTAACCTGTTGCCT (site CATTATCCTAG)	0.096
CAGTGCTCTTGGGTTCTAACCTGTTGCCA (site CAATGCTCTAG)	0.648
CAGTGCTCTTGGGTTCTAACCTGTTGCCA (site CAGTGCTCTTG)	1.52
CAGTGTCCTTGGGTTCTAACCTGTTGCCG (site CAGTGTCCTCG)	1.45
CAGTGTCCTTGGGTTCTAACCTGTTGCCG (site GAGCGTCCTCG)	0.122
CATAACCCTTGGGTTCTAACCTGTTGCAT (site ATCGGATCTCG)	0.0317
CATAACCCTTGGGTTCTAACCTGTTGCAT (site CATAACCCTAT)	1.84
CATCAGCCTTGGGTTCTAACCTGTTGCCT (site CATAAGCCTAG)	0.206
CATCAGCCTTGGGTTCTAACCTGTTGCCT (site CATCAGCCTAG)	0.547
CATCAGCCTTGGGTTCTAACCTGTTGCCT (site CATGAGCCTAG)	0.306

Sequence	recombinant barcode read abundance (log10)
CATCAGCCTTGGGTTCTAACCTGTTGCCT (site CATTAGCCTAG)	0.0622
CATCCGGCTTGGGTTCTAACCTGTTGCCT (site CATCCGACTAG)	0.317
CATCCGGCTTGGGTTCTAACCTGTTGCCT (site CATCCGCCTAG)	0.0278
CATCCGGCTTGGGTTCTAACCTGTTGCCT (site CATCCGGCTAG)	0.434
CATCCGGCTTGGGTTCTAACCTGTTGCCT (site CATCCGTCTAG)	0.255
CATCCGTCTTGGGTTCTAACCTGTTGCTT (site CATCCCTCTAA)	0.0222
CATCCGTCTTGGGTTCTAACCTGTTGCTT (site CATCCGTCTAA)	1.24
CATCCTACTTGGGTTCTAACCTGTTGCAT (site CATCCTACTAT)	0.665
CATCCTACTTGGGTTCTAACCTGTTGCAT (site CATCCTACTCG)	0.0637
CATCCTACTTGGGTTCTAACCTGTTGCGG (site CATCCTACTCC)	1.98
CATCCTACTTGGGTTCTAACCTGTTGCGG (site CATCCTCCTCA)	0.0136
CATCGATCTTGGGTTCTAACCTGTTGCCT (site CATCGATCTAG)	0.558
CATCGATCTTGGGTTCTAACCTGTTGCCT (site CATCTATCTAG)	0
CATCGCACTTGGGTTCTAACCTGTTGCCT (site CATCGCACTAG)	0.0933
CATCGCACTTGGGTTCTAACCTGTTGCCT (site CCTCGCACTAG)	0.289
CATCGCACTTGGGTTCTAACCTGTTGCCT (site CGTCGCACTAG)	0.153
CATCGCACTTGGGTTCTAACCTGTTGCCT (site CTTCGCACTAG)	0.184
CATCGGACTTGGGTTCTAACCTGTTGCAG (site ACATAAGCTAG)	0.139
CATCGGACTTGGGTTCTAACCTGTTGCAG (site CATCGGACTCT)	1.48
CATCGTACTTGGGTTCTAACCTGTTGCAT (site CATCGTACTAT)	0.00546
